Structures can show the parent of a compound that is named as a salt. Where two headings read alike, the source gives them in different places. Marks after values point to notes of the source that are not given here.
Experiments:
[1] = Dog pharmacokinetic (PK) study, single oral administration; type: in vivo, Beagle dogs; conditions: dog, in vivo; for AUC0-24, Total Pio / AUC0-24, Total R-pio / AUC0-24, Total S-pio / Cmax, Total Pio / Cmax, Total R-pio / Cmax, Total S-pio / T1/2z, Total Pio / T1/2z, Total R-pio / T1/2z, Total S-pio / Tmax, Total Pio / Tmax, Total R-pio / Tmax, Total S-pio: po
Description: The 3 Beagle male dogs were fasted before dosing. Then all test drugs were administered by the oral route using API in a capsule. [table] Food was given no sooner than one hour after dose administration on the days of treatment. Each administration was separated by a wash-out period of at least 2 days. […] Predose (just before dosing) and then […] after dosing.

[2] = pH-dependent solubility of crystalline salts (48 h equilibration, HPLC); type: physicochemical; conditions: for Solubility: room temperature, 48 hours; for solubility at 48 h: 22 °C, thermodynamic from solid
Description: The pH-dependent solubility profiles of the crystalline DCl salt form of deuterium-enriched (R)-pioglitazone, and crystalline pioglitazone HCl were determined at room temperature (about 21° C. to about 23° C.) in the pH range of 0.3-7.6. For the crystalline HCl salt form of deuterium-enriched (R)-pioglitazone, the pH-dependent solubility profile was measured at room temperature (about 21° C. to about 23° C.) in the pH range of 0.3-3.5.
For the crystalline DCl salt form of deuterium-enriched pioglitazone, the pH-dependent solubility profile was measured at room temperature (about 21° C. to about 23° C.) in the pH range of 0.7-3.5.
Suspensions of the three crystalline forms were prepared in water or USP buffer solutions. The pH of the suspensions was adjusted through the addition of 0.1 M HCl or 0.1 M NaOH. For the preparation of suspensions with a pH of 0.5 or lower, the pH was adjusted using 1 M HCL.
The suspensions were then allowed to equilibrate at room temperature (about 21° C. to about 23° C.) for 48 hours. After equilibration the solid phases were separated from the liquid phases by centrifugation, subsequently dried and then analyzed by XRPD. The concentration of deuterium-enriched (R)-pioglitazone or pioglitazone in the liquid phases (mother liquors) was determined by HPLC (see HPLC method described in Example 5).

[3] = Solubility of crystalline DCl salt in various solvents (suspension, HPLC); type: physicochemical; conditions: 24 hours at room temperature
Description: Aliquots of the mother liquor were then taken from each suspension and analyzed by HPLC to determine the concentration of deuterium-enriched (R)-pioglitazone in the different solvents. [table]

[4] = Water, filtered mother liquor pH 1.6

[2H][C@@]1(Cc2ccc(OCCc3ccc(CC)cn3)cc2)SC(=O)NC1=O [PXL064, deuterium-enriched (S)-pioglitazone]
AUC0-24, Total Pio ([1]; 5 mg/kg): 1410 ng·h/mL | AUC0-24, Total R-pio ([1]; 5 mg/kg): 203 ng·h/mL | AUC0-24, Total S-pio ([1]; 5 mg/kg): 1200 ng·h/mL | Cmax, Total Pio ([1]; 5 mg/kg): 588 ng/mL | Cmax, Total R-pio ([1]; 5 mg/kg): 54.0 ng/mL | Cmax, Total S-pio ([1]; 5 mg/kg): 538 ng/mL | T1/2z, Total Pio ([1]; 5 mg/kg): 1.73 h | T1/2z, Total R-pio ([1]; 5 mg/kg): 1.91^a h | T1/2z, Total S-pio ([1]; 5 mg/kg): 1.75 h | Tmax, Total Pio ([1]; 5 mg/kg): 2 h | Tmax, Total R-pio ([1]; 5 mg/kg): 2 h | Tmax, Total S-pio ([1]; 5 mg/kg): 2 h

[2H]Cl.[2H]N1C(=O)S[C@]([2H])(Cc2ccc(OCCc3ccc(CC)cn3)cc2)C1=O [deuterium-enriched (R)-pioglitazone]
Solubility ([2]; Acetate Buffer, filtered mother liquor pH 4.4): <50 µg/mL | Solubility ([2]; Phosphate Buffer, filtered mother liquor pH 6.5): <50 µg/mL | Solubility ([2]; Phosphate Buffer, filtered mother liquor pH 7.4): <50 µg/mL | Solubility ([2]; Water, filtered mother liquor pH 0.4): 1600 µg/mL | Solubility ([2]; Water, filtered mother liquor pH 0.6): 3010 µg/mL | Solubility ([2]; Water, filtered mother liquor pH 0.8): 3300 µg/mL | Solubility ([2]; Water, filtered mother liquor pH 1.4): 4540 µg/mL | Solubility [2, 4]: 2580 µg/mL | Solubility ([2]; Water, filtered mother liquor pH 2.4): 390 µg/mL | Solubility ([2]; Water, filtered mother liquor pH 3.7): 50 µg/mL | Solubility ([2]; Water, filtered mother liquor pH 6.8): <50 µg/mL | Solubility (in words) ([2]; above pH 4): practically insoluble | Solubility ([3]; 2-propanol): 500 µg/mL | Solubility ([3]; 3-pentanone): 500 µg/mL | Solubility ([3]; Acetone): 500 µg/mL | Solubility ([3]; Chloroform): 2000 µg/mL | Solubility ([3]; DMSO): 225900 µg/mL | Solubility ([3]; Ethanol): 4400 µg/mL | Solubility ([3]; Ethyl acetate): <100 µg/mL | Solubility ([3]; Methanol): 45000 µg/mL | Solubility ([3]; N,N-dimethylformamide): 46400 µg/mL | Solubility ([3]; Tetrahydrofuran): 1800 µg/mL | Solubility ([3]; Water): 7700 µg/mL | Solubility ([3]; tert-butyl methyl ether): <100 µg/mL

CCc1ccc(CCOc2ccc(CC3SC(=O)NC3=O)cc2)nc1 (stereo not shown) [Pioglitazone HCl Salt, pioglitazone hydrochloride, reference compound]
Solubility (in words) [2]: practically insoluble | solubility at 48 h ([2]; pH 0.6, aqueous buffer): 2880 µg/mL | solubility at 48 h ([2]; pH 0.7, aqueous buffer): 4000 µg/mL | solubility at 48 h ([2]; pH 1.2, simulated gastric fluid): 670 µg/mL | solubility at 48 h ([2]; pH 1.6, simulated gastric fluid): 440 µg/mL | solubility at 48 h ([2]; pH 3, aqueous buffer): 30 µg/mL | solubility at 48 h ([2]; pH 4.5, aqueous buffer): < 30 µg/mL | solubility at 48 h ([2]; pH 4.6, aqueous buffer): < 30 µg/mL | solubility at 48 h ([2]; pH 5.6, aqueous buffer): < 30 µg/mL | solubility at 48 h ([2]; pH 6.6, aqueous buffer): < 30 µg/mL | solubility at 48 h ([2]; pH 7.6, aqueous buffer): < 30 µg/mL

[2H]Cl.[2H]N1C(=O)SC([2H])(Cc2ccc(OCCc3ccc(CC)cn3)cc2)C1=O (racemic) [deuterium-enriched pioglitazone]
Solubility ([2]; Water, filtered mother liquor pH 0.7): 5240 µg/mL | Solubility ([2]; Water, filtered mother liquor pH 0.9): 2490 µg/mL | Solubility ([2]; Water, filtered mother liquor pH 1.1): 1630 µg/mL | Solubility [2, 4]: 420 µg/mL | Solubility ([2]; Water, filtered mother liquor pH 3.1): <30 µg/mL | Solubility ([2]; Water, filtered mother liquor pH 4.8): <30 µg/mL | pH-dependent solubility behavior (in words) ([2]; pH range 0.7-3.5): behavior similar to that of pioglitazone HCl

[2H]C1(Cc2ccc(OCCc3ccc(CC)cn3)cc2)SC(=O)NC1=O (racemic) [PXL061, deuterium-enriched pioglitazone]
Frel vs PXL061 (relative oral bioavailability), Total Pioglitazone [1]: 1 | AUC0-24, Total Pio ([1]; 10 mg/kg): 4800 ng·h/mL | AUC0-24, Total R-pio ([1]; 10 mg/kg): 2650 ng·h/mL | AUC0-24, Total S-pio ([1]; 10 mg/kg): 2150 ng·h/mL | Cmax, Total Pio ([1]; 10 mg/kg): 1310 ng/mL | Cmax, Total R-pio ([1]; 10 mg/kg): 638 ng/mL | Cmax, Total S-pio ([1]; 10 mg/kg): 683 ng/mL | T1/2z, Total Pio ([1]; 10 mg/kg): 4.03 h | T1/2z, Total R-pio ([1]; 10 mg/kg): 2.78 h | T1/2z, Total S-pio ([1]; 10 mg/kg): 3.61 h | Tmax, Total Pio ([1]; 10 mg/kg): 1 h | Tmax, Total R-pio ([1]; 10 mg/kg): 1 h | Tmax, Total S-pio ([1]; 10 mg/kg): 1 h

— patent publication US11319313B2, “Crystalline forms of deuterium-enriched pioglitazone” (Poxel SA, priority 2020, dated 2022)
